According to US20180312651A1, “FOAMS AND ARTICLES MADE FROM FOAMS CONTAINING HCFO OR HFO BLOWING AGENTS” (HONEYWELL INTERNATIONAL INC., priority 2011, published 2018):
Where a name gives a salt, the structure may show the parent alone. Read-outs that look alike come from different tables or passages of the source.

What was measured:
[1] = cited from earlier work
[2] = manufacturers' literature; cited from earlier work
PEL = conditions: Honeywell internal PEL
Description: Table 1 and Table 2, below, list the properties of 1233zd(E) and 1234ze(E) compared to other commonly used blowing agents.
Table 3A and Table 3B list the properties of 1233zd(E) compared to some non-flammable blowing agents, such as 245fa and 141b, and various flammable blowing agents, such as methyl formate and hydrocarbons. […] Note that the global warming potential (GWP) of 1233zd(E) of less than 5 is the lowest among all blowing agents compared. Moreover, the GWP of 1233zd(E) is more than two orders of magnitude lower than that of the currently utilized 245fa, and is more than one order of magnitude lower than the present limitations in the EU F-Gas Regulation.

SMILES | LFL/UFL (Vol % in Air) [1] | PEL [2] | PEL (PEL)
FC(Cl)Cl [compound 22, dichlorofluoromethane] | None | 1000 ppm | –
CCC(C)C [isopentane] | 1.4-8.3 Vol % | 600 ppm | –
CC(F)(F)CC(F)(F)F [365mfc, 1,1,1,3,3-pentafluorobutane] | 3.6-13.3 Vol % | 1000 ppm | –
CC(F)(Cl)Cl [141b, 1,1-dichloro-1-fluoroethane] | 7.6-17.7 Vol % | 500 ppm | –
CC(F)(F)Cl [142b, 1-chloro 1,1-difluoroethane] | 8.0-15.4 Vol % | 1000 ppm | –
FC(F)(F)/C=C/Cl [1233zd(E), trans-1-chloro-3,3,3-trifluoropropene] | None | 300 ppm | 300^5
CCCCC [normal pentane, n-pentane] | 1.4-8.3 Vol % | 600 ppm | –
COC=O [Methyl Formate, methyl formate] | 5.0-23.0 Vol % | 600 ppm | –
C1CCCC1 [C-C5, cyclopentane] | 1.5-8.7 Vol % | – | –
FC(F)CC(F)(F)F [245fa, 1,1,1,3,3-pentafluoropropane] | None | 300 ppm | –
F/C=C/C(F)(F)F [1234ze(E), trans-1,3,3,3-tetrafluoropropene] | None | 1000 ppm | –
